Data published in patent publication US20230120597A1, “CO-AGONISTS AT GLP-1 AND GIP RECEPTORS SUITABLE FOR ORAL DELIVERY” (Novo Nordisk A/S, priority 2020, published 2023).
Marks after values point to notes of the source that are not given here. Starred links: 1 amine or outer side, 2 acyl side, 3 side chain; linkers in the order of their positions; H or OH if unused. Non-standard residues stand in square brackets, D forms with d. Residues, ends and D or L forms follow the SMILES beside them. Groups on a side chain read outwards from the residue. *: point of attachment. C20 diacid = O=C(O)CCCCCCCCCCCCCCCCCCC(=O)*; C18 diacid = O=C(O)CCCCCCCCCCCCCCCCC(=O)*; γGlu = O=C(O)[C@H](CCC(=O)[*:2])N[*:1]; εLys = N[C@@H](CCCCN[*:1])C(=O)[*:2]; Aib = CC(C)(N)C(=O)O

Assay: Pharmacokinetic study in dogs, oral dosing of tablet compositions with SNAC
Format: in vivo, Beagle dogs
Details: dog, in vivo, po
Method: The purpose of this example is to determine the half-life and plasma exposure in vivo of the compounds of the present invention after p.o. administration to beagle dogs, i.e. the terminal half-life and concentration of test substance that reaches circulation with time. This is done in a pharmacokinetic (PK) study, where these parameters of the compound in question are determined. By terminal half-life is generally meant the period of time it takes to halve a certain plasma concentration, measured after the initial distribution phase.
The amount of SNAC in the tablet composition was 100-300 mg, the amount of magnesium stearate in the tablet composition was 7.7 mg, and the target amount of each test substance in the tablet composition was 3-4 mg.
Male beagle dogs, 1-7 years of age and weighing 9-17 kg during the study period, were included in the study. The dogs were dosed in a fasting state. The dogs were group housed in pens (12 hours light: 12 hours dark), and fed individually and restrictedly once daily with Royal Canin Medium Adult dog food (Royal Canin Products, China Branch, or Brogaarden A/S, Denmark). The dogs were used for repeated PK studies with a suitable wash-out period between successive dosing. An appropriate acclimatization period was given prior to initiation of the first PK study. All handling, dosing, and blood sampling of the animals were performed by trained and skilled staff. Before the studies, the dogs were fasted overnight and from 0 to 4 hours after dosing. The dogs were restricted to water 1 hour before dosing until 4 hours after dosing, but otherwise had ad libitum access to water during the whole period.
The compositions were administered by a single oral dosing to the dogs in groups of 6-8 dogs. […] The mouth was then closed, and 10 mL of tap water was given by syringe or gavage to facilitate swallowing of the tablet.
One blood sample was drawn before dosing, and additional samples were drawn at predefined time points after dosing for up to 240 hours, such as up to 10 hours, to adequately cover the full plasma concentration-time absorption profile of the test substance. For each blood sample time point, approximately 0.8 mL of whole blood was collected in a 1.5 mL EDTA-coated tube, which was gently turned to mix the sample with EDTA. Blood samples were collected in EDTA buffer (8 mM) and then centrifuged at 4° C. 2000 g for 10 minutes. Plasma was pipetted into Micronic tubes on dry ice, and kept at −20° C. or lower until analysis. Blood samples were taken as appropriate, for example from a venflon in the cephalic vein in the front leg for the first 2 hours and then with syringe from the jugular vein for the rest of the time points. The first few drops were allowed to drain from the venflon to avoid heparin saline from the venflon in the sample.
All blood samples were collected into test tubes containing EDTA for stabilisation and kept on ice until centrifugation. Plasma was separated from whole blood by centrifugation and the plasma was stored at −20° C. or lower until analysis.
The plasma was analysed for test substance using LC-MS (Liquid Chromatography-Mass Spectrometry) as known to the person skilled in the art. […] RP-HPLC separation was achieved using a linear gradient of 1:1 acetonitrile/methanol in 1% aqueous formic acid using either: a Phenomenex Onyx Monolithic C18 column (50×2.0 mm) and a flow rate of 0.8 mL/min at 30° C.; or an Agilent Poroshell 120 SB-C18 column (50×2.1 mm, 2.7 μm) at a flow rate of 0.4 mL/min at 60° C. The mass spectrometer was operated in either positive ionization SIM mode or positive ionization PRM mode.
For each individual animal, a plasma concentration-time profile was analysed by a non-compartmental model in Pharsight Phoenix WinNonLin ver.

| SMILES | AUC/Dose |
| --- | --- |
| CC[C@H](C)[C@H](NC(=O)[C@H](Cc1ccccc1)NC(=O)[C@H](CCC(=O)O)NC(=O)[C@H](CCCNC(=N)N)NC(=O)[C@H](C)NC(=O)[C@H](C)NC(=O)[C@H](CCC(N)=O)NC(=O)[C@H](CCCCNC(=O)[C@@H](N)CCCCNC(=O)[C@@H](N)CCCCNC(=O)CC[C@H](NC(=O)CCCCCCCCCCCCCCCCCCC(=O)O)C(=O)O)NC(=O)[C@H](CCC(=O)O)NC(=O)[C@H](CC(C)C)NC(=O)[C@H](Cc1ccc(O)cc1)NC(=O)[C@@H](NC(=O)[C@H](CO)NC(=O)[C@H](Cc1ccc(O)cc1)NC(=O)[C@H](CC(=O)O)NC(=O)[C@H](CO)NC(=O)[C@@H](NC(=O)[C@H](Cc1ccccc1)NC(=O)[C@@H](NC(=O)CNC(=O)[C@H](CCC(=O)O)NC(=O)C(C)(C)NC(=O)[C@@H](N)Cc1ccc(O)cc1)[C@@H](C)O)[C@@H](C)O)[C@@H](C)CC)C(=O)N[C@@H](CC(N)=O)C(=O)N[C@@H](Cc1c[nH]c2ccccc12)C(=O)N[C@@H](CC(C)C)C(=O)N[C@@H](CC(C)C)C(=O)N[C@@H](C)C(=O)NCC(=O)NCC(=O)N1CCC[C@H]1C(=O)N[C@@H](CO)C(=O)N[C@@H](CO)C(=O)NCC(=O)N[C@@H](C)C(=O)N1CCC[C@H]1C(=O)N1CCC[C@H]1C(=O)N1CCC[C@H]1C(=O)N[C@@H](CO)C(=O)O [Compound No. 16] (H-Y[Aib]EGTFTSDYSIYLEK([εLys-εLys-γGlu-C20 diacid])QAAREFINWLLAGGPSSGAPPPS-OH) | 8.6 kg·h/L |
| CC[C@H](C)[C@H](NC(=O)[C@H](Cc1ccccc1)NC(=O)[C@H](CCC(=O)O)NC(=O)[C@H](CCCNC(=N)N)NC(=O)[C@H](C)NC(=O)[C@H](C)NC(=O)[C@H](CCC(N)=O)NC(=O)[C@H](CCCCNC(=O)[C@@H](N)CCCCNC(=O)[C@@H](N)CCCCNC(=O)CC[C@H](NC(=O)CCCCCCCCCCCCCCCCC(=O)O)C(=O)O)NC(=O)[C@H](CCC(=O)O)NC(=O)[C@H](CC(C)C)NC(=O)[C@H](CC(C)C)NC(=O)[C@@H](NC(=O)[C@H](CO)NC(=O)[C@H](Cc1ccc(O)cc1)NC(=O)[C@H](CC(=O)O)NC(=O)[C@H](CO)NC(=O)[C@@H](NC(=O)[C@H](Cc1ccccc1)NC(=O)[C@@H](NC(=O)CNC(=O)[C@H](CCC(=O)O)NC(=O)C(C)(C)NC(=O)[C@@H](N)Cc1ccc(O)cc1)[C@@H](C)O)[C@@H](C)O)[C@@H](C)CC)C(=O)N[C@@H](CC(N)=O)C(=O)N[C@@H](Cc1c[nH]c2ccccc12)C(=O)N[C@@H](CC(C)C)C(=O)N[C@@H](CC(C)C)C(=O)N[C@@H](C)C(=O)NCC(=O)NCC(=O)N1CCC[C@H]1C(=O)N[C@@H](CO)C(=O)N[C@@H](CO)C(=O)O [Compound No. 20] (H-Y[Aib]EGTFTSDYSILLEK([εLys-εLys-γGlu-C18 diacid])QAAREFINWLLAGGPSS-OH; N-terminus assumed) | 10.8 kg·h/L |
| CC[C@H](C)[C@H](NC(=O)[C@H](Cc1ccccc1)NC(=O)[C@H](CCC(=O)O)NC(=O)[C@H](CCC(N)=O)NC(=O)[C@H](C)NC(=O)[C@H](C)NC(=O)[C@H](CCC(N)=O)NC(=O)[C@H](CCCCNC(=O)[C@@H](N)CCCCNC(=O)[C@@H](N)CCCCNC(=O)CC[C@H](NC(=O)CCCCCCCCCCCCCCCCC(=O)O)C(=O)O)NC(=O)[C@H](CCC(=O)O)NC(=O)[C@H](CC(C)C)NC(=O)[C@H](CC(C)C)NC(=O)[C@@H](NC(=O)[C@H](CO)NC(=O)[C@H](Cc1ccc(O)cc1)NC(=O)[C@H](CC(=O)O)NC(=O)[C@H](CO)NC(=O)[C@@H](NC(=O)[C@H](Cc1ccccc1)NC(=O)[C@@H](NC(=O)CNC(=O)[C@H](CCC(=O)O)NC(=O)C(C)(C)NC(=O)[C@@H](N)Cc1ccc(O)cc1)[C@@H](C)O)[C@@H](C)O)[C@@H](C)CC)C(=O)N[C@@H](CC(N)=O)C(=O)N[C@@H](Cc1c[nH]c2ccccc12)C(=O)N[C@@H](CC(C)C)C(=O)N[C@@H](CC(C)C)C(=O)N[C@@H](C)C(=O)NCC(=O)NCC(=O)N1CCC[C@H]1C(=O)N[C@@H](CO)C(=O)N[C@@H](CO)C(=O)NCC(=O)N[C@@H](C)C(=O)N1CCC[C@H]1C(=O)N1CCC[C@H]1C(=O)N1CCC[C@H]1C(=O)N[C@@H](CO)C(=O)O [Compound No. 24] (H-Y[Aib]EGTFTSDYSILLEK([εLys-εLys-γGlu-C18 diacid])QAAQEFINWLLAGGPSSGAPPPS-OH; N-terminus assumed) | 16.4 kg·h/L |
| CC[C@H](C)[C@H](NC(=O)[C@H](Cc1ccccc1)NC(=O)[C@H](CCC(=O)O)NC(=O)[C@H](CCC(=O)O)NC(=O)[C@H](C)NC(=O)[C@H](C)NC(=O)[C@H](CCC(N)=O)NC(=O)[C@H](CCCCNC(=O)[C@@H](N)CCCCNC(=O)[C@@H](N)CCCCNC(=O)CC[C@H](NC(=O)CCCCCCCCCCCCCCCCC(=O)O)C(=O)O)NC(=O)[C@H](CCC(=O)O)NC(=O)[C@H](CC(C)C)NC(=O)[C@H](CC(C)C)NC(=O)[C@@H](NC(=O)[C@H](CO)NC(=O)[C@H](Cc1ccc(O)cc1)NC(=O)[C@H](CC(=O)O)NC(=O)[C@H](CO)NC(=O)[C@@H](NC(=O)[C@H](Cc1ccccc1)NC(=O)[C@@H](NC(=O)CNC(=O)[C@H](CCC(=O)O)NC(=O)C(C)(C)NC(=O)[C@@H](N)Cc1ccc(O)cc1)[C@@H](C)O)[C@@H](C)O)[C@@H](C)CC)C(=O)N[C@@H](CC(N)=O)C(=O)N[C@@H](Cc1c[nH]c2ccccc12)C(=O)N[C@@H](CC(C)C)C(=O)N[C@@H](CC(C)C)C(=O)N[C@@H](C)C(=O)NCC(=O)NCC(=O)N1CCC[C@H]1C(=O)N[C@@H](CO)C(=O)N[C@@H](CO)C(=O)NCC(=O)N[C@@H](C)C(=O)N1CCC[C@H]1C(=O)N1CCC[C@H]1C(=O)N1CCC[C@H]1C(=O)N[C@@H](CO)C(=O)O [Compound No. 25] (H-Y[Aib]EGTFTSDYSILLEK([εLys-εLys-γGlu-C18 diacid])QAAEEFINWLLAGGPSSGAPPPS-OH) | 15.2 kg·h/L |
| CC[C@H](C)[C@H](NC(=O)[C@H](Cc1ccccc1)NC(=O)[C@H](CCC(=O)O)NC(=O)[C@H](Cc1c[nH]cn1)NC(=O)[C@H](C)NC(=O)[C@H](C)NC(=O)[C@H](CCC(N)=O)NC(=O)[C@H](CCCCNC(=O)[C@@H](N)CCCCNC(=O)[C@@H](N)CCCCNC(=O)CC[C@H](NC(=O)CCCCCCCCCCCCCCCCC(=O)O)C(=O)O)NC(=O)[C@H](CCC(=O)O)NC(=O)[C@H](CC(C)C)NC(=O)[C@H](CC(C)C)NC(=O)[C@@H](NC(=O)[C@H](CO)NC(=O)[C@H](Cc1ccc(O)cc1)NC(=O)[C@H](CC(=O)O)NC(=O)[C@H](CO)NC(=O)[C@@H](NC(=O)[C@H](Cc1ccccc1)NC(=O)[C@@H](NC(=O)CNC(=O)[C@H](CCC(=O)O)NC(=O)C(C)(C)NC(=O)[C@@H](N)Cc1ccc(O)cc1)[C@@H](C)O)[C@@H](C)O)[C@@H](C)CC)C(=O)N[C@@H](CC(N)=O)C(=O)N[C@@H](Cc1c[nH]c2ccccc12)C(=O)N[C@@H](CC(C)C)C(=O)N[C@@H](CC(C)C)C(=O)N[C@@H](C)C(=O)NCC(=O)NCC(=O)N1CCC[C@H]1C(=O)N[C@@H](CO)C(=O)N[C@@H](CO)C(=O)NCC(=O)N[C@@H](C)C(=O)N1CCC[C@H]1C(=O)N1CCC[C@H]1C(=O)N1CCC[C@H]1C(=O)N[C@@H](CO)C(=O)O [Compound No. 26] (H-Y[Aib]EGTFTSDYSILLEK([εLys-εLys-γGlu-C18 diacid])QAAHEFINWLLAGGPSSGAPPPS-OH) | 27.4* kg*h/L |
